{"source": "BindingDB's records for doi:10.1021/jm049478u", "about": "(Johnson & Johnson Pharmaceutical Research & Development, 2005)", "biological_target": "Glycogen synthase kinase-3 beta (Oryctolagus cuniculus)", "experiment": "Inhibition of rabbit Glycogen synthase kinase-3 beta", "data": [{"smiles": "CN(C)CCCn1nc(C2=C(c3cn(-c4ccccc4)c4ccccc34)C(=O)NC2=O)c2ccccc21", "note": "[3-[1-(3-Dimethylamino-propyl)-1H-indazol-3-yl]-4-(1-phenyl-1H-indol-3-yl)-pyrrole-2,5-dione]", "values": [{"measurement": "IC50", "value": 0.27, "unit": "µM"}]}]}
